What was measured:
Top1 in CL187 cells = Top1 in CL187 cells (Homo sapiens, UniProt P11387); test: Intracellular Top1 enzyme activity assay; assay type: cell-based; design: endogenous in cells; host or cells: CL187 cells (nuclear, mitochondrial and cytoplasmic extracts); settings: CL187 cells treated 6 h; CPT at 50 μM
Protocol: CL187 cells were treated with different concentrations of drugs for 6 h. The supernatant was discarded, and the cells were collected. The extracts of cytoplasm, mitochondria, and nucleus were obtained by the same method as described in Section 2.4.7. The protein concentration of each extract was detected by BCA kit. Enzyme activity reaction was carried out by using 125 ng super helical DNA (pHOT-1) and cell extract. The protein concentration of the extract was guaranteed to be the same in each group. The mixture solution of the pHOT-1 and the cell extract was added into the reaction buffer and incubated for 30 min at 37 °C. The reaction was terminated with loading buffer. The agarose gel electrophoresis was performed, and the images were collected.

CL187 cells = test: Intracellular drug distribution (LC-MS/MS); assay type: in vitro ADME, Human; settings: CL187 cells incubated 6 h; nucleus, mitochondria, cytoplasm extracts
Protocol: CL187 cells were inoculated in 6-well plates, until the well was full of the cells. Then the supernatant was discarded, and the cells were washed with PBS three times. The cells were added with the different concentrations of PTE or RE and incubated for 6 h. After supernatant was discarded, the cells were washed with cold Hank’s solution for three times to terminate cell metabolism. Cell cytoplasm, nucleus, and mitochondria were extracted with the nuclear and mitochondrial extraction kit (KeyGEN BioTECH, Nanjing, China). Cells were resuspended with 1.5 mL Lysis Buffer and transferred to a 2 mL glass homogenizer for grinding (0–4 °C ice bath). The homogenate was collected and centrifuged at 800× g at 4 °C for 5 min. The nuclei were distributed in the precipitate, while the mitochondria were distributed in the supernatant. […] The protein concentration of each extract was detected by the BCA kit.
The drug contents of the extracted cell cytoplasm, nucleus, and mitochondria were determined by LC-MS/MS. […] The calibration range for the quantitation of each compound in all cellular components was 10 to 10,000 ng/mL. […]

Tdp1 = test: Western blot of Tdp1 protein in cells; assay type: cell-based, Human; settings: 6 h
Protocol: CL187 cells were treated with RE or PTE for 6 or 12 h, collected, and placed into lysis buffer (KeyGEN BioTECH, Nanjing, China). The total protein content in the cell lysates was measured using a BCA kit. Equivalent amount of total protein (30 μg) was loaded onto 10% SDS-PAGE gel. Electrophoresis was performed at 80 V for 25 min. After the sample went through concentrated gel, the voltage was adjusted to 120 V. Electrophoresis was stopped when the bromophenol blue band approached the bottom of the gel. After being transferred to PVDF membranes, the samples were incubated separately with 3 types of primary antibodies Top1, Tdp1, and P53 rabbit mAb (CST, Boston, MA, USA), followed by the incubation with secondary antibody goat anti-rabbit IgG (HRP)-conjugated (1:3000). ECL kit (New Cell and Molecular Biotech, Suzhou, China) was used for color development, and the images were collected by the gel imaging system (Tanon-5200, Shanghai, China).

Chain of Top1 in CL187 cells (P11387 2-765): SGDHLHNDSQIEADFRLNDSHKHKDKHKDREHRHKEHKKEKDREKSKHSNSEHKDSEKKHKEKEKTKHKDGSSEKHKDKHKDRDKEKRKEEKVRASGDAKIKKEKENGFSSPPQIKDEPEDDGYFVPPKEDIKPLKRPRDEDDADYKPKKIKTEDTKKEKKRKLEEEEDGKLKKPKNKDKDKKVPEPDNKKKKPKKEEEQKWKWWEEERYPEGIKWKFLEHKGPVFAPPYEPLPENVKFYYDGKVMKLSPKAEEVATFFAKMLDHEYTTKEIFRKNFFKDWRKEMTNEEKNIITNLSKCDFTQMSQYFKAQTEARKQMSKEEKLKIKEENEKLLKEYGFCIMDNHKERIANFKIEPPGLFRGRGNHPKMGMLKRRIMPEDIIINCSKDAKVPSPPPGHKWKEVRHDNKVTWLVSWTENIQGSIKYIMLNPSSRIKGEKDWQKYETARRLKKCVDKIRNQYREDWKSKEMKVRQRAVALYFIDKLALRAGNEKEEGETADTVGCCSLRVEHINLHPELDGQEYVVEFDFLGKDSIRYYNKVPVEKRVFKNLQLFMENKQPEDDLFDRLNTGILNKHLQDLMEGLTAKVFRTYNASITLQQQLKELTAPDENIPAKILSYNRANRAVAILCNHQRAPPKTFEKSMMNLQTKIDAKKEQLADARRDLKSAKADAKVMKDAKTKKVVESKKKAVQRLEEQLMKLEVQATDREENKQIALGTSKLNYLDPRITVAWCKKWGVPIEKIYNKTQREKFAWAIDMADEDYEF

**Q.** With `COc1cc(/C=C/c2ccc(O)cc2)cc(OC)c1` [PTE, 3,5-dimethoxy-4′-hydroxy-trans-stilbene] as the molecule, how does the “Top1 enzyme activity in the nucleus” value (Top1 in CL187 cells) read?
**A.** The value was “significantly inhibited”.

**Q.** And the “concentration of drug in cells (maximum)” value (CL187 cells)?
**A.** The value was “more than 70.0 ng/μg”.

**Q.** And the Tdp1 protein content (Tdp1; Tdp1-over CL187 cells)?
**A.** The Tdp1 protein content was “reduced in dese-dependent manner”.

**Q.** And the Tdp1 protein content (Tdp1; siRNA-Top1 CL187 cells)?
**A.** Its Tdp1 protein content is “reduced in a dose-dependent manner”.

**Q.** What about the Tdp1 protein content (Tdp1; wild-type CL187 cells) of the same molecule?
**A.** The Tdp1 protein content was “decreased in PTE treatment group, but neither in dese-dependent and significant manner”.
